From paper PMC8398451, “Molecular Engineering of Curcumin, an Active Constituent of Curcuma longa L. (Turmeric) of the Family Zingiberaceae with Improved Antiproliferative Activity” (Plants, 2021)

Tests used:
CCRF-CEM = assay: NCI antiproliferative SRB assay, Leukemia panel; assay type: cell-based, Human; conditions: one dose 10 µM
HL-60(TB) = assay: cells; assay type: cell-based; conditions: one dose 10 µM
MOLT-4 = assay: NCI antiproliferative SRB assay, Leukemia panel; assay type: cell-based, Human; conditions: one dose 10 µM
RPMI-8226 = assay: NCI antiproliferative SRB assay, Leukemia panel; assay type: cell-based, Human; conditions: one dose 10 µM
SR = assay: NCI antiproliferative SRB assay, Leukemia panel; assay type: cell-based, Human; conditions: one dose 10 µM
A549/ATCC = assay: NCI antiproliferative SRB assay, Non-Small Cell Lung Cancer panel; assay type: cell-based, Human; conditions: one dose 10 µM
NCI-H322M = assay: as above; assay type: cell-based, Human; conditions: one dose 10 µM
NCI-H460 = assay: as above; assay type: cell-based, Human; conditions: one dose 10 µM
HCC-2998 = assay: NCI antiproliferative SRB assay, Colon Cancer panel; assay type: cell-based, Human; conditions: one dose 10 µM
HCT-116 = assay: as above; assay type: cell-based, Human; conditions: one dose 10 µM
KM12 = assay: as above; assay type: cell-based, Human; conditions: one dose 10 µM
SF-268 = assay: NCI antiproliferative SRB assay, CNS Cancer panel; assay type: cell-based, Human; conditions: one dose 10 µM
SNB-19 = assay: NCI antiproliferative SRB assay, CNS Cancer panel; assay type: cell-based, Human; conditions: one dose 10 µM
SNB-75 = assay: NCI antiproliferative SRB assay, CNS Cancer panel; assay type: cell-based, Human; conditions: one dose 10 µM
LOX IMVI = assay: NCI antiproliferative SRB assay, Melanoma panel; assay type: cell-based, Human; conditions: one dose 10 µM
M14 = assay: NCI antiproliferative SRB assay, Melanoma panel; assay type: cell-based, Human; conditions: one dose 10 µM
SK-MEL-2 = assay: NCI antiproliferative SRB assay, Melanoma panel; assay type: cell-based, Human; conditions: one dose 10 µM
UACC-257 = assay: NCI antiproliferative SRB assay, Melanoma panel; assay type: cell-based, Human; conditions: one dose 10 µM
UACC-62 = assay: NCI antiproliferative SRB assay, Melanoma panel; assay type: cell-based, Human; conditions: one dose 10 µM
OVCAR-5 = assay: NCI antiproliferative SRB assay, Ovarian Cancer panel; assay type: cell-based, Human; conditions: one dose 10 µM
OVCAR-8 = assay: as above; assay type: cell-based, Human; conditions: one dose 10 µM
ACHN = assay: NCI antiproliferative SRB assay, Renal Cancer panel; assay type: cell-based, Human; conditions: one dose 10 µM
RXF 393 = assay: as above; assay type: cell-based, Human; conditions: one dose 10 µM
TK-10 = assay: as above; assay type: cell-based, Human; conditions: one dose 10 µM
UO-31 = assay: as above; assay type: cell-based, Human; conditions: one dose 10 µM
BT-549 = assay: NCI antiproliferative SRB assay, Breast Cancer panel; assay type: cell-based, Human; conditions: one dose 10 µM
Leukemia cell line panel = assay: NCI antiproliferative assay, panel summary; assay type: cell-based, Human; conditions: 10 µM
[1] = test system: CNS Cancer cell line panel; assay: NCI antiproliferative assay, panel summary; assay type: cell-based, Human; conditions: 10 µM
Melanoma cell line panel = assay: NCI antiproliferative assay, panel summary; assay type: cell-based, Human; conditions: 10 µM
[2] = test system: Ovarian Cancer cell line panel; assay: NCI antiproliferative assay, panel summary; assay type: cell-based, Human; conditions: 10 µM
[3] = test system: Prostate Cancer cell line panel; assay: NCI antiproliferative assay, panel summary; assay type: cell-based, Human; conditions: 10 µM

Compound: COc1ccc(/C=C/c2cc(/C=C/c3ccc(OC)c(O)c3)n(-c3cccc(Cl)c3)c(=S)n2)cc1O [3a]
- %GI (CCRF-CEM): 46.57%
- GP (growth percent) (CCRF-CEM): 53.43
- %GI (HL-60(TB)): 16.52%
- GP (growth percent) (HL-60(TB)): 83.48
- %GI (MOLT-4): 53.78%
- GP (growth percent) (MOLT-4): 46.22
- %GI (RPMI-8226): 39.41%
- GP (growth percent) (RPMI-8226): 60.59
- %GI (SR): 51.28%
- GP (growth percent) (SR): 48.72
- %GI (A549/ATCC): 27.44%
- GP (growth percent) (A549/ATCC): 72.56
- %GI (NCI-H322M): 8.07%
- GP (growth percent) (NCI-H322M): 91.93
- %GI (NCI-H460): 10.49%
- GP (growth percent) (NCI-H460): 89.51
- %GI (HCC-2998): −3.70%
- GP (growth percent) (HCC-2998): 103.70
- %GI (HCT-116): 38.12%
- GP (growth percent) (HCT-116): 61.88
- %GI (KM12): 19.67%
- GP (growth percent) (KM12): 80.33
- %GI (SF-268): 16.24%
- GP (growth percent) (SF-268): 83.76
- %GI (SNB-19): 15.45%
- GP (growth percent) (SNB-19): 84.55
- %GI (SNB-75): 19.22%
- GP (growth percent) (SNB-75): 80.78
- %GI (LOX IMVI): 21.36%
- GP (growth percent) (LOX IMVI): 78.64
- %GI (M14): 5.96%
- GP (growth percent) (M14): 94.04
- %GI (SK-MEL-2): 4.85%
- GP (growth percent) (SK-MEL-2): 95.15
- %GI (UACC-257): 47.09%
- GP (growth percent) (UACC-257): 52.91
- %GI (UACC-62): 17.81%
- GP (growth percent) (UACC-62): 82.19
- %GI (OVCAR-5): −12.92%
- GP (growth percent) (OVCAR-5): 112.92
- %GI (OVCAR-8): 28.57%
- GP (growth percent) (OVCAR-8): 71.43
- %GI (ACHN): 4.99%
- GP (growth percent) (ACHN): 95.01
- %GI (RXF 393): 7.37%
- GP (growth percent) (RXF 393): 92.63
- %GI (TK-10): −12.60%
- GP (growth percent) (TK-10): 112.60
- %GI (UO-31): 28.74%
- GP (growth percent) (UO-31): 71.26
- %GI (BT-549): 27.48%
- GP (growth percent) (BT-549): 72.52
- Mean % GI (Leukemia cell line panel): 41.39%
- Mean % GI [1]: 14.74%
- Mean % GI (Melanoma cell line panel): 17.21%
- Mean % GI [2]: 7.04%
- Mean % GI [3]: 14.98%
